Measured values as given in PMC10877733, “Discovery and Characterization of VU0542270, the First Selective Inhibitor of Vascular Kir6.1/SUR2B KATP Channels” (Molecular Pharmacology, 2024).

Assay: Rat intravenous pharmacokinetics
Format: in vivo
Conditions: for MRT: iv
Method: All animal housing and experimental procedures were approved by the Vanderbilt University Animal Care and Use committee and followed the guidelines set forth by the Guide for the Care and Use of Laboratory Animals. VU0542270 was formulated as a solution in ethanol, PEG400, and saline (1:4:5 v/v, respectively) at a concentration of 1 mg/mL and administered as a single 1-mg/kg IV dose (1 mL/kg) to male Sprague Dawley rats (n = 2; between 366–418 g body weights) via injection into a surgically implanted jugular vein catheter. Blood samples were collected serially from a surgically implanted carotid artery catheter in each animal over multiple postadministration time points (0.033, 0.117, 0.25, 0.5, 1, 2, 4, 7, and 24 hours) into chilled K2EDTA anticoagulant-fortified tubes and immediately placed on wet ice. The blood samples were then centrifuged [1700 relative centrifugal force (rcf), 5 minutes, 4°C] to obtain plasma samples, which were stored at −80°C until analysis by liquid chromatography tandem mass spectrometry (LC-MS/MS). The intravenous pharmacokinetic (PK) data were used for the calculation of relevant intravenous pharmacokinetic parameters [plasma clearance (CLp), volume of steady state, elimination half-life (t1/2), and mean residence time]. In vivo pharmacokinetic parameters of VU0542270 were determined from the observed individual animal time-versus-concentration data using noncompartmental analysis via WinNonlin (WNL; v.5.3, Pharsight Corp., Mountain View, CA.).
Plasma samples from the in-life phases of the studies were thawed at ambient temperature (benchtop), and then aliquots (20 µL per sample) were transferred to a 96-shallow-well (V-bottom) plate. Matrix-matched quality-control samples and a standard curve of VU0542270 (1 mg/mL DMSO stock solution) were prepared in blank rat plasma (K2EDTA treated) or blank brain homogenate via serial dilution and transferred (20 µL each) to the plate along with multiple blank plasma and brain homogenate samples. Acetonitrile (120 µL) containing internal standard (50 nM carbamazepine) was added to each well of the plate to precipitate protein. The plate was then centrifuged (4000 rcf, 5 minutes, ambient temperature), and resulting supernatants (60 µL each) were transferred to a new 96-shallow-well (V-bottom) plate containing an equal volume (60 µL per well) of water (Milli-Q purified). The plate was then sealed in preparation for LC-MS/MS analysis (see below).
Prepared samples were injected (10 µL each) onto an AB Sciex triple quad-4500 mass spectrometer system with an Agilent 1290 Infinity Binary Pump and multisampler. Analytes were separated on a reverse phase column Phenomenex Kinetex C18 (50 × 2.1 mm, 5 µm) that was thermostated at 40°C. High-pressure liquid chromatography mobile phase A was 0.5% formic acid in water (pH unadjusted); mobile phase B was 0.5% formic acid in acetonitrile (pH unadjusted). […] The column was re-equilibrated (1 minute) before the next sample injection. The total run time was 2.55 minutes, and the high-pressure liquid chromatography flow rate was 0.5 ml/min. The source temperature was set at 500°C, and mass spectral analyses were performed using a Turbo-Ion spray source in positive ionization mode (5.0-kV spray voltage) and using multiple-reaction monitoring of transitions specific for both analyte (m/z 335.7–236.7 at 35 eV) and internal standard (m/z 237.0–193.9 at 25 eV). Quantitation of VU0542270 was performed via AB Sciex Analyst software using the raw analyte:IS peak area ratios. The typical detection range for VU0542270 was 0.5 ng/mL to ≥5000 ng/mL, utilizing a quadratic equation regression with 1/x^2 weighting.

- half-life (male, Sprague Dawley, plasma, 1 mg/kg, rat IV PK): 38.4 min
- clearance (male, Sprague Dawley, plasma, rat, 1 mg/kg IV, read-out: CLp): 17.7 mL/min/kg
- Vd (male, Sprague Dawley, plasma, rat, 1 mg/kg IV, read-out: Vss): 0.2 L/kg
- MRT (male, Sprague Dawley, rat, plasma, 1 mg/kg, 1 mg/kg IV): 11.4 min
- MRT (male, Sprague Dawley, rat, plasma, 1 mg/kg, rat IV PK): 10.2 min
- t1/2 (rat, 1 mg/kg IV): 38.4 min
SMILES: Cc1nc(-c2cccs2)sc1CNC(=O)Nc1cccs1 [VU0542270]
